pKd: −log10 of the molar value.
Assays:
[1] = Binding constant towards alpha-cyclodextrin
[2] = (§1) Binding constant towards Beta-cyclodextrin at pH 7.4 in unbuffered water at 25 C in a one-to-one complex
[3] = as §1; remark: listed apart in the source
[4] = Binding constant towards gamma-cyclodextrin
[5] = Binding constant towards Beta-cyclodextrin

Structure (SMILES) | Binding constant [1] | Binding constant [2] | pKd [3] | Binding constant [4] | Binding constant [5]
COC(=O)[C@H]1[C@@H](OC(=O)c2ccccc2)C[C@@H]2CC[C@H]1N2C [COCAINE] | < 60 M⁻¹ | 570 M⁻¹ | 2.76 | < 60 M⁻¹ | –
CN1[C@@H]2CC[C@H]1C[C@H](OC(=O)c1ccccc1)C2 (stereo in doubt; 9) | – | – | – | – | 500 M⁻¹
CN1[C@@H]2CC[C@H]1C[C@H](OC(=O)c1ccccc1)C2 (stereo in doubt; 8) | – | – | – | – | 1120 M⁻¹

Source: ChEMBL document CHEMBL1133289, “The binding of cocaine to cyclodextrins” (Bioorg Med Chem Lett, 2000)
